According to patent publication US4833268A, “Threo-adrenalinecarboxylic acid, and the production and uses thereof” (Zaidan Hojin Biseibutsu Kagaku Kenkyu Kai, priority 1982, dated 1989):
Where two headings read alike, the source gives them in different places.

How the values were obtained:
[1] = cited from earlier work; for accumulation of noradrenaline in brain: after intraperitoneal administration, rats; for decarboxylation in vivo, leading to accumulation of noradrenaline in heart: intraperitoneally administered in rats; for levels of noradrenaline in heart and brain: intraperitoneal administration of high dosages
[2] = system: brain enzymes (homogenate of the whole brains of mice); experiment: Test 7: in vitro decarboxylation by supernatant of mouse whole brain homogenate
Description: (§1) The whole brains of mice of ddY-strain were homogenized and the resulting brain homogenate was diluted with the same volume of a buffere solution (comprising 50 mM Tris-HCl (pH 8.6, 1.5 mM EDTA.2Na); 0.5 mM Pridoxal-5-Phosphate; 1 mM Nialamide; and 0.85 mM L-ascorbic acid), and the mixture was centrifuged at 10,000 g to give a supernatant liquid containing the brain enzymes. To this supernatant liquid (500 μl) was added a solution containing 4.5 mM of a substrate selected from L-threo-adrenalinecarboxylic acid, L-threo-DOPS and L-DOPA. The mixture obtained (pH ca. 8, 1.0 ml) was incubated for 30 minutes at 37° C., followed by quantitative determination of adrenaline, noradrenaline or dopamine formed as the reaction product catecholamine.
(§2) The determination of the catecholamine as produced (adrenaline, noradrenaline or […]) was made according to the following procedure: Thus, the incubated mixture was admixed with aqueous 6% perchloric acid (PCA) for stopping the enzymatic reactions, and the reaction solution so obtained was de-salted by adding thereto potassium carbonate to precipitate the potassium perchlorate, and removing the precipitate by filtration. The de-salted reaction solution was passed through a column of Amberlite CG-50 as developed with 250 μl of 2N-PCA solution and then with 250μl of water. The eluate was analyzed by a high performance liquid chromatography under the following conditions:
(§3) Mobile Phase: 0.1M Citrate buffer (pH 4.3)-methanol(9:1) containing 0.0025M 1-octane sulfonic acid sodium salt
(§4) Column temperature: 40° C.
(§5) Applied voltage: 600 mV vs. Ag/AgCl.
(§6) The yield of the catecholamine as formed was calculated in term of percentages based on the quantity of the substrate charged, and this calculated yield denotes the rate of decarboxylation of the substrate compound (in %).

[3] = as above; settings: mouse, brain homogenate supernatant, pH 8
Description: as §1, §2, §3, §4, §5, §6

[4] = type: in vivo, mice; settings: 500 mg/kg i.p., whole brain 90 minutes after administration
Description: 90 Minutes after the i.p. administration, the whole brain portion was removed surgically from the mice. The quantity of the threo-adrenalinecarboxylic acid or the quantity of the threo-DOPS which was transferred into and accumulated in the brain portion of mice, as well as the quantity of adrenaline in the brain portion of mice were determined by a high-performance liquid chromatography.

[5] = Test 4: acute toxicity; settings: i.p., 0.5 ml per mouse of 20 mg/ml suspension in 0.5% CMC
Description: This test is carried out to examine acute toxicity of the DL-threo-adrenalinecarboxylic acid.
To DDB4-strain mice (male, body weight 23-28 g, six in each group) was intraperitoneally administered at a dosage of 0.5 ml per mouse a suspension containing 20 mg/ml of DL-threo-adrenalinecarboxylic acid dispersed in an aqueous solution of 0.5% carboxymethylcellulose (CMC). The mice were then raised under normal conditions for 7 days after the administration of the compound. During these 7 days, the mice were observed and estimated with regard to their body weight, the quantity of feedstock and the quantity of water which were taken by the mice.

[6] = system: reserpine-induced decrease in the body temperature and muscular rigidity; experiment: Test 3: reserpine-induced decrease in body temperature and muscular rigidity (reserpine 2.5 mg/kg s.c.); type: in vivo, ddY-strain mice; settings: for Body Temperature (°C.) (Average ± Standard deviation) 24 Hours after administration of reserpine: 800 mg/kg group, 24 hours after reserpine 2.5 mg/kg s.c., before test compound; for Body Temperature (°C.) (Average ± Standard deviation) 1 Hour after administration of adrenaline carboxylic acid / Muscular Rigidity: number of mice exhibiting significant improvement in the muscular rigidity per the total number of mice in each group: given 24 hours after reserpine 2.5 mg/kg s.c.; for Body Temperature (°C.) (Average ± Standard deviation) Before administration of reserpine: baseline of the 800 mg/kg group, before reserpine and before test compound
Description: After this, 800 mg/kg of L-threo-adrenalinecarboxylic acid or 800 mg/kg of D-threo-adrenalinecarboxylic acid or DL-threo-adrenalinecarboxylic acid synthetized according to this invention was intraperitoneally administered to the mice having received reserpine. One hour after the administration of the threo-adrenalinecarboxylic acid, the body temperature of the treated mice was determined. Estimation was also made about whether the muscular rigidity as induced by reserpine was improved by the administration of the threo-adrenalinecarboxylic acid of this invention.

[7] = system: harmaline-induced tremor; experiment: Test 1: inhibitory activity against harmaline-induced tremor; type: in vivo, ddY-strain mice; settings: for Reduction (%) in the duration of tremor action: 30 minutes before harmaline 10 mg/kg i.p., relative to harmaline-only control
Description: This test was made according to one usual method for screening antiparkinsonian drugs which determines inhibitory activity against harmaline-induced tremor.
ddY-strain Mice (male, body weight 20-30 g, five in each group) were used as test animal for respective tests. The new compound, DL-threo-adrenalinecarboxylic acid according to this invention, was intraperitoneally administered to each of the mice at a dosage of 400 mg/kg or […], and after the lapse of 30 minutes harmaline was also intrapenitoneally injected to the same mice at a dosage of 10 mg/kg. Then, the duration of tremor action as induced in the mice under test was observed and recorded. The rate (percentage) of reduction in the duration of tremor action in relation to the control group of mice to which only harmaline was administered in the same dosage was calculated by the equation given below. By way of comparison DL-threo-3-(3,4-dihydroxyphenyl)serine (i.e. DL-threo-DOPS) in a dosage of 400 mg/kg was tested in the same manner as above. [formula]

[8] = system: reserpine-induced decrease in the body temperature; experiment: Test 2: inhibition of reserpine-induced decrease in body temperature (reserpine 4 mg/kg i.p.); type: in vivo, ddY-strain mice; settings: for Body Temperature (°C.) 1 Hour after / Body Temperature (°C.) 2 Hours after: given 24 hours after reserpine 4 mg/kg i.p.
Description: ddY-strain Mice (male, body weight 20-30 g, five in each group) were used as the test animal for respective tests. Reserpine was intraperitoneally administered to each mouse at a dose of 4 mg/kg. 24 Hours later, the decreased body temperature of the mice was observed and recorded. After this, 1500 mg/kg or 2000 mg/kg of DL-threo-adrenalinecarboxylic acid was intraperitoneally administered to each of the mice having received reserpine. At the end of 1 hour and at the end of 2 hours after the administration of the DL-threo-adrenalinecarboxylic acid, the body temperature of these treated mice was determined and shown in Table 3 below.

[9] = Test 6: brain concentration of 14C-labelled compound after intravenous administration; type: in vivo, C57 Black-strain mice; settings: administered intraperitoneally or intravenously in mice
Description: After a last injection of heparin, the treated mice were anesthetized with ethylether and the breast opened surgically. The blood was withdrawn from the heart and the lower portion of the heart ventricle was cut off. A catheter was inserted at the ventricle into the artery and fixed by means of binding threads. The two veins at the neck were opened surgically, and immediately physiological saline was injected through said catheter so that the remaining blood was entirely withdrawn at the opened veins together with the washing saline. The whole brain was removed from the sacrificed mouse, and the whole brain was dried in air at ambient temperature overnight.

N[C@H](C(=O)O)[C@H](O)c1ccc(O)c(O)c1 [L-threo-DOPS, L-threo-3-(3,4-dihydroxyphenyl)serine]
accumulation of natural (l)-noradrenaline in the brain ([1]; after direct injection into a cerebral ventricle): marked
accumulation of noradrenaline in brain [1]: negligible
decarboxylation in vivo, leading to accumulation of noradrenaline in heart [1]: readily decarboxylated in vivo
decarboxylation in vitro by homogenate of whole brains of mice, in words [2]: can be decarboxylated into noradrenaline
metabolised at 0.5 h, 4500 µM [3]: > 0.52%

N[C@@H](C(=O)O)[C@H](O)c1ccc(O)c(O)c1 [D-erythro-DOPS]
levels of noradrenaline in heart and brain [1]: slight increase

N[C@H](C(=O)O)[C@@H](O)c1ccc(O)c(O)c1 [L-erythro-DOPS]
accumulation of noradrenaline in brain [1]: significant
decarboxylation in vivo, leading to accumulation of noradrenaline in heart [1]: readily decarboxylated in vivo

N[C@@H](Cc1ccc(O)c(O)c1)C(=O)O [L-DOPA, L-3,4-dihydroxyphenylalanine]
metabolised at 0.5 h, 4500 µM [3]: > 11.7%

CN[C@H](C(=O)O)[C@H](O)c1ccc(O)c(O)c1 (relative stereo) [DL-threo-adrenalinecarboxylic acid, DL-threo-3-(3,4-dihydroxyphenyl)-N-methylserine]
Quantity (as average) of the administered compound present in brain [4]: 2.0 n mole/g
Quantity (as average) of adrenaline in brain ([4]; not administered: 0.37 n mole/g): 0.44 n mole/g
acute toxicity: body weight, quantity of feedstock and quantity of water taken, treated vs control group ([5]; 7 days observation): No diference could be detected
acute toxicity: anatomical examination, organ weights, bio-chemical tests of blood, tissue-pathological tests, treated vs control group ([5]; after 7 days): no significant difference existed
Body Temperature (°C.) (Average ± Standard deviation) 24 Hours after administration of reserpine [6]: 34.9 ± 0.7 °C
Body Temperature (°C.) (Average ± Standard deviation) 1 Hour after administration of adrenaline carboxylic acid ([6]; 800 mg/kg i.p.): 36.9 ± 0.3 °C
Muscular Rigidity: number of mice exhibiting significant improvement in the muscular rigidity per the total number of mice in each group ([6]; 800 mg/kg i.p.): 0/5
Body Temperature (°C.) (Average ± Standard deviation) Before administration of reserpine [6]: 39.1 ± 0.2 °C
Reduction (%) in the duration of tremor action ([7]; 400 mg/kg i.p.): 34%
Reduction (%) in the duration of tremor action ([7]; 600 mg/kg i.p.): 37%
reduction in duration of tremor action, comparison in words ([7]; i.p., harmaline 10 mg/kg): significantly superior to DL-threo-DOPS
Body Temperature (°C.) 1 Hour after ([8]; 1500 mg/kg i.p.): 32.9 °C
Body Temperature (°C.) 2 Hours after ([8]; 1500 mg/kg i.p.): 32.6 °C
Body Temperature (°C.) 1 Hour after ([8]; 2000 mg/kg i.p.): 34.0 °C
Body Temperature (°C.) 2 Hours after ([8]; 2000 mg/kg i.p.): 32.5 °C
effect on reserpine-induced decrease in body temperature, in words ([8]; 1500 or 2000 mg/kg i.p., compared to control mice receiving reserpine only): inhibited the reserpine-induced decrease in the body temperature

CN[C@@H](C(=O)O)[C@@H](O)c1ccc(O)c(O)c1 [D-threo-adrenalinecarboxylic acid]
Body Temperature (°C.) (Average ± Standard deviation) 24 Hours after administration of reserpine [6]: 36.0 ± 0.5 °C
Body Temperature (°C.) (Average ± Standard deviation) 1 Hour after administration of adrenaline carboxylic acid ([6]; 800 mg/kg i.p.): 35.9 ± 0.5 °C
Muscular Rigidity: number of mice exhibiting significant improvement in the muscular rigidity per the total number of mice in each group ([6]; 800 mg/kg i.p.): 0/5
Body Temperature (°C.) (Average ± Standard deviation) Before administration of reserpine [6]: 38.9 ± 0.2 °C

N[C@H](C(=O)O)[C@H](O)c1ccc(O)c(O)c1 (relative stereo) [DL-threo-DOPS, DL-threo-3-(3,4-dihydroxyphenyl)serine, reference compound]
Quantity (as average) of the administered compound present in brain [4]: Not detectable
Reduction (%) in the duration of tremor action ([7]; 400 mg/kg i.p.): 26%

CN[C@H](C(=O)O)[C@H](O)c1ccc(O)c(O)c1 [L-threo-adrenalinecarboxylic acid, L-threo-3-(3,4-dihydroxyphenyl)-N-methylserine]
penetration through the blood-brain barrier, in words [9]: can surprisingly penetrate and transfer through the blood-brain barrier into the brain
decarboxylation in vitro by homogenate of whole brains of mice, in words ([2]; in vitro, mouse whole brain homogenate): can hardly be decarboxylated into adrenaline
metabolised at 0.5 h, 4500 µM [3]: < 0.00031%
Body Temperature (°C.) (Average ± Standard deviation) 24 Hours after administration of reserpine [6]: 35.4 ± 0.4 °C
effect on reserpine-induced decrease in body temperature, in words ([6]; 800 mg/kg i.p.): remarkably inhibits the reserpine-induced decrease in the body temperature
effect on reserpine-induced muscular rigidity, in words ([6]; 800 mg/kg i.p.): remarkably improves (eliminates or weakens) the muscular rigidity
Body Temperature (°C.) (Average ± Standard deviation) 1 Hour after administration of adrenaline carboxylic acid ([6]; 800 mg/kg i.p.): 38.7 ± 0.5 °C
Muscular Rigidity: number of mice exhibiting significant improvement in the muscular rigidity per the total number of mice in each group ([6]; 800 mg/kg i.p.): 5/5
Body Temperature (°C.) (Average ± Standard deviation) Before administration of reserpine [6]: 39.0 ± 0.2 °C

N[C@@H](C(=O)O)[C@@H](O)c1ccc(O)c(O)c1 [D-threo-DOPS]
levels of noradrenaline in heart and brain [1]: slight increase
